Legend:
Assay type in all cases: in vivo, guinea pig
[1] = test system: citric acid smoke stimulation-caused guinea pigs; experiment: Coughing times of citric acid smoke stimulated guinea pigs at different time points after one dose (Embodiment III); details: 5 hours after one oral dose of 30 mg/kg; FIG. 2
Procedure: After the guinea pigs are quietly raised for one week, the cough sensitivity is screened: the guinea pigs are stimulated for one minute by atomizing 0.8 mol/L citric acid and continuously observed for five minutes after the atomizing is stopped; the coughing times of the guinea pigs in 6 minutes after the atomization is started is recorded; and the guinea pigs with the coughing times greater than 10 times and less than 50 times are the qualified guinea pigs.
The qualified guinea pigs are selected to be normally raised for three days and randomly divided into four groups with 30 guinea pigs in each group. The guinea pigs in the first group are divided into three subgroups with 10 guinea pigs in each subgroup, and all guinea pigs are directly under the citric acid cough stimulation: the guinea pigs are stimulated for one minute by atomizing 0.8 mol/L citric acid and are continuously observed for 5 minutes after the atomization is stopped, and the coughing times of the guinea pigs in 6 minutes after the atomization is started is recorded. […]

[2] = test system: acute cough guinea pigs induced by citric acid smoke; experiment: Acute cough of guinea pigs induced by citric acid smoke, five days of dosing (Embodiment II); details: 30 mg/kg oral once, one hour before stimulation at fifth day, x ± s, n = 8
Procedure: After the guinea pigs are quietly raised for one week, the cough sensitivity screening is carried out: the guinea pigs is stimulated for one minute by atomizing 0.8 mol/L citric acid and continuously observed for five minutes; the coughing times of the guinea pigs in 6 minutes after the atomizing is started is recorded; and the guinea pigs with the coughing times greater than 10 times and less than 50 times are the qualified guinea pigs. […]
Except for the normal group and the codeine group, the guinea pigs in the rest groups are orally given with drugs or solvent consecutively for five days and once a day; and the citric acid cough stimulation is carried out in one hour after the guinea pigs are given with the drug or solvent at the fifth day: the guinea pigs are stimulated for one minute by atomizing 0.8 mol/L citric acid and are continuously observed for 5 minutes after the atomizing is stopped, and the coughing times of the guinea pigs in 6 minutes after the atomizing is started is recorded. […]

[3] = test system: BALF inflammatory cells of guinea pigs with increased cough sensitivity induced by cigarette smoke; experiment: Total number and classification of BALF inflammatory cells, cigarette smoke guinea pigs (Embodiment I); details: codeine group 30 mg/kg oral once, n = 7-10
Procedure: 1.1 Smoking method: prior to the experiment, after being adaptively raised quietly for one week, the guinea pigs are placed in a self-made cigarette poisoning box; ten cigarettes are fired every time and placed in a smoking trough (flume-cured tobacco type, content of tar is 12 mg, content of nicotine in smoke is 1.1 mg, and content of carbon oxide in the smoke is 15 mg); and the cigarette smoke is led into the poisoning box by three-way valve, and the timing is started after the cigarette is burnt out. The guinea pigs are smoked for 20 minutes every time and twice a day; and the smoking interval time between two adjacent smoking is greater than 6 h; and the guinea pigs are consecutively smoked for 14 days.
The guinea pigs are randomly divided into a normal group, a model group, a solvent reference group (0.5% PEG400), a codeine group, a water extract high dose group (dose: 500 mg/kg guinea pig/day: drug concentration: […]), a total polysaccharides high dose group (dose: 500 mg/kg guinea pig/day; drug concentration: 50 mg/mL), a total polysaccharides middle dose group (dose: 250 mg/kg guinea pig/day; drug concentration: 25 mg/mL) and a total polysaccharides low dose group (dose: 125 mg/kg guinea pig/day, drug concentration: 12.5 mg/mL).
Except for the normal group, animals in other groups are respectively stimulated by adopting the smoking method described in the above 1.1. Except for the normal group and the codeine group, the guinea pigs in the other groups are orally given with the corresponding drugs or solvent two hours before the second smoking for 14 consecutive days from the first day of smoking. The guinea pigs of the codeine group is orally administrated (30 mg/kg guinea pig; the codeine concentration: 3 mg/mL) one hour before the citric acid cough sensitivity check. The guinea pigs of the normal group are normally raised without any treatment. The guinea pigs are placed in a plethysmogrophy box at the 15th day; two minutes later, 0.4 mol/L citric acid aqueous solution is atomized to perform the cough stimulation, and the atomizing is ended in 10 minutes; the guinea pigs are continuously observed for 10 minutes; and the coughing times and coughing latent period of the guinea pigs in 20 minutes after the atomizing is started are recorded.
Intraperitoneal injection with 3% pentobarbital sodium solution (1 mL/kg) is performed to anesthetize the animal in 24 hours after the cough stimulation test, and 10 mL of blood is taken from the heart of the animal. The bronchoalveolar lavage fluid (BALF) is obtained by taking 6 mL of 0.1 mol/L pre-cooled PBS buffer solution, performing the bronchoalveolar lavage for three times, and uniformly lavaging the left lung repeatedly for three times. […]

[4] = test system: guinea pigs with increased cough sensitivity induced by cigarette smoke; experiment: Citric acid cough stimulation of guinea pigs with increased cough sensitivity induced by cigarette smoke (Embodiment I); details: 30 mg/kg oral once, one hour before citric acid check, x ± s, n = 7-10
Procedure: Experimental animals used in the specific embodiments are ordinary male pure white Hartly guinea pigs each with a weight of 300±50 g which are supplied by the Laboratory Animal Center of Guangdong Province (SCXK (Guang) 2008-0002). The guinea pigs are raised in a relatively clean and quiet environment with constant temperature (23±3° C.) and constant humidity (55±15%); the diurnal cycle is 12:12 h/day; and the guinea pigs are raised in different cages, and every five guinea pigs are raised in one cage and can obtain food and water freely. […]
Except for the normal group, animals in other groups are respectively stimulated by adopting the smoking method described in the above 1.1. […] The guinea pigs are placed in a plethysmogrophy box at the 15th day; two minutes later, 0.4 mol/L citric acid aqueous solution is atomized to perform the cough stimulation, and the atomizing is ended in 10 minutes; the guinea pigs are continuously observed for 10 minutes; and the coughing times and coughing latent period of the guinea pigs in 20 minutes after the atomizing is started are recorded.

For `COc1ccc2c3c1O[C@H]1[C@@H](O)C=C[C@H]4[C@@H](C2)N(C)CC[C@@]341` [Codeine], the “coughing times compared with the normal group” value [1] was “no significant difference”, the Coughing times ([2]; 0.8 mol/L citric acid, 6 min count) was 3.83 ± 1.94 and the “Coughing latent period” value [2] was 115.3 ± 20.18 s. For the same molecule, the Eos % ([3]; BALF eosinophils, mean) was 4.25%, the Lym % ([3]; BALF lymphocytes, mean) was 3.64% and the Mac % ([3]; BALF macrophages, mean) was 43.86%. The Neu % ([3]; BALF neutrophils, mean) was 48.10%, the “total number of cells * 10^6/mL” value ([3]; BALF, x ± s) was 2.13 ± 0.38 10^6/mL and the Coughing times ([4]; 0.4 mol/L citric acid, day 15, 20 min count) was 37.29 ± 11.64. The “Coughing latent period” value ([4]; day 15) was 186.14 ± 45.27 s.

From US9629869B2, “Application of fructus schisandrae total polysaccharides in preparatoin of medicine or nutraceuticals used for treating coughing” (priority 2014, dated 2017)
